Experimental data as given in paper PMC11243149, “Assessing the Effects of Thiazole-Carboxamide Derivatives on the Biophysical Properties of AMPA Receptor Complexes as a Potential Neuroprotective Agent” (Molecules, 2024).
Read-outs that look alike come from different tables or passages of the source.

Assays:
Type in all cases: cell-based
GluA2 = target: T1, GluA2 (Homo sapiens, UniProt P42262); test: Whole-cell patch-clamp recordings of homomeric GluA2 AMPAR in transfected HEK293T cells; settings: for Amplitude (glutamate plus TC compound): 10 mM glutamate + TC compound (12 µM optimal concentration), HEK293T, -60 mV, pH 7.4, 22 °C, mean ± SEM; for Amplitude (glutamate plus TC compound) / Amplitude, applying glutamate alone after TC compound: n = 10; for Amplitude, applying glutamate alone after TC compound: 10 mM glutamate alone after 20 s wash following the TC compound; for t deact: weighted tau of deactivation, 10 mM glutamate for 1 ms, glutamate alone 2.3±0.1; for t deact / t des: with TC compound; for t des: weighted tau of desensitization, 10 mM glutamate 500 ms, glutamate alone 2.6±0.1
T1 construct: expressed in transfected cells; host or cells: HEK293T
T1 sequence (P42262 25-883 isoform P42262-2 limits assumed, species assumed): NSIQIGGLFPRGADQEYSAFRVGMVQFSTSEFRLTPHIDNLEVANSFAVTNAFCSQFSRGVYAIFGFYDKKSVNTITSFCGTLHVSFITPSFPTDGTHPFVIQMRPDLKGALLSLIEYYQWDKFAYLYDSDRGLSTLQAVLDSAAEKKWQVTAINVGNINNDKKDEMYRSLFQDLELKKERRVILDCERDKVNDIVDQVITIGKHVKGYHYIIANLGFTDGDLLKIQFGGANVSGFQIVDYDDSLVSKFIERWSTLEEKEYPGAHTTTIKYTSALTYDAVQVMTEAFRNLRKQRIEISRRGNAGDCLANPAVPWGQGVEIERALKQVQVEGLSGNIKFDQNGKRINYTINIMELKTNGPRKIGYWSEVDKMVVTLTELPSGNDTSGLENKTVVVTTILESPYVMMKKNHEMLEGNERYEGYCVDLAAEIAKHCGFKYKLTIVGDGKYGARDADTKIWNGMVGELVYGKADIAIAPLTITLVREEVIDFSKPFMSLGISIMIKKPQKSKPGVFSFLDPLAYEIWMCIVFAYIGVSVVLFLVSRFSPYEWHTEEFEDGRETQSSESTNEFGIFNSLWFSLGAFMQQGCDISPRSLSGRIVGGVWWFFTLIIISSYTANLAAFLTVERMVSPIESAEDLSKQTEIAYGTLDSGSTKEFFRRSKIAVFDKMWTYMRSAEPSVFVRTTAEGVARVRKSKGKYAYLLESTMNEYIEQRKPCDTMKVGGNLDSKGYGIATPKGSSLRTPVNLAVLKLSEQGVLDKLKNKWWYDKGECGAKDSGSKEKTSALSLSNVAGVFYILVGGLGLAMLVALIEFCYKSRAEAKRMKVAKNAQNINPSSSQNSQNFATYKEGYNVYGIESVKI
Method: (§1) The effect of five TC compounds on whole-cell currents of four AMPAR subunits (GluA1, GluA1/2, GluA2, and GluA2/3) was investigated using transfected HEK293T cells. Each compound was applied separately to each subunit, with experiments conducted on 8–10 cells per condition to ensure reproducibility. […] At a glutamate concentration of 10 mM and a 500 ms protocol, approximately 95% of AMPAR channels were open. The A/AI ratio was calculated to compare the results, where A represents normalized current readings and AI indicates the inhibited current following TC compound exposure. […] Following closely, TC-1 inhibited the tested subunits by 5-fold.
(§2) The IC50 values were examined using GraphPad Prism software 9.5.0.730 (x64) (Table S6), which confirmed these findings. The IC50 values of TC substances were calculated by standardizing the peak current amplitudes using data obtained from 8–10 cells. Following a 500 ms exposure to the compounds, the cells were rinsed with glutamate for 20 s. Next, a solution containing just glutamate at a concentration of 10 mM was administered, and the resulting immediate induced electrical current was measured and documented (Figure 3).
(§3) In addition, an evaluation was conducted on the deactivation rates (τw deact) of all the examined chemicals to investigate their impact on the kinetics of deactivation. The chemicals were assessed for their effect on the deactivation kinetics of AMPAR subunits by briefly administering 10 mM glutamate for 1 ms to begin currents. This experimental setup allowed for the observation of τw deact under controlled conditions. […] TC-5 induced an approximately 2-fold increase in τw deact across all four tested subunits. […] These findings highlight the differential impact of TC compounds on deactivation kinetics across AMPAR subunits, shedding light on their potential neuroprotective mechanisms.
(§4) The flip isoform was uniformly employed across all AMPAR subunits in this study. These subunits were subcloned into the pRK vector and expressed in Human Embryonic kidney cells sourced (Sigma, München, Germany). HEK293T cells were grown in Dulbecco Modified Eagle Medium (DMEM) (Sigma, München, Germany) containing 10% FBS (fetal bovine serum), 0.1 mg/mL streptomycin, and 1 mM sodium pyruvate (Biological Industries; Beit-Haemek, Israel). HEK293T cells were incubated at 37 °C and 5% CO2 was supplemented to the medium. It was subcultured twice a week until cells reached pass #20. The transfection reagent used was either jetPRIME (Polyplus: New York, NY, USA) or Lipofectamine 2000 (Invitrogen; San Diego, CA, USA). Cells were kept for 36 h. after transfection in 12-well plates. Then, they were replated on coverslips coated with Laminin (1 mg/mL; Sigma, Germany) for electrophysiology recordings. Cells were then seeded in Petri dishes in DMEM supplemented with 10% fetal calf serum and antibiotics and maintained in a humidified incubator at 37 °C and 5% CO2. Highly fluorescent cells were identified and selected for recording post-transfection.
(§5) HEK293T cells were recorded for 36–48 h, at a temperature of 22 °C, with a membrane potential of −60 mV. HEK293T cells were recorded 36–48 h after transfection using IPA (Integrated Patch Amplifier) via the […], at a temperature of 22 °C, with a membrane potential of −60 mV. SutterPatch Software v. 1.1.1 (Sutter Instruments, Novato, CA, USA) was used to digitize membrane currents for a short period. The sampling frequency was set to 10 kHz, and the low-pass filter was set to 2 kHz. Borosilicate glass was used to fabricate the patch electrodes with a resistance of 2–4 MΩ. The extracellular solution contained the following (values are in mM): 150 NaCl, 2.8 KCl, 0.5 MgCl2, 2 CaCl2, and 10 HEPES, adjusted to pH 7.4 with NaOH. The pipette solution contained the following (values are in mM): 110 CsF, 30 CsCl, 4 NaCl, 0.5 CaCl2, 10 […], and 10 HEPES, adjusted to pH 7.2 with CsOH. […]

[1] = tested on: AMPAR subunits (GluA1, GluA1/2, GluA2, and GluA2/3); test: Whole-cell patch-clamp recordings, statements over all tested AMPAR subunits; settings: for reduction in τw des: across all examined subunits; for increase in τw deact / decrease in AMPAR subunit activity (inhibition of the whole-cell current): all tested subunits; for increase in τw deact: 10 mM glutamate for 1 ms; for decrease in AMPAR subunit activity (inhibition of the whole-cell current): 10 mM glutamate, 500 ms protocol
Method: as §1
A thorough investigation was performed to assess the neuroprotective potential of the TC compounds. The influence of the five TC compounds on the desensitization traces is seen in Figure 4, namely in panels b, d, f, and h. TC-2 caused a substantial reduction in τw des in all receptor subunits, with decreases ranging from 2 to 3 times.
as §3, §4
as §5, with “CsOH. Using double barrel glass (theta tube), glutamate and the solutions of choice were rapidly administered, and the theta tube was mounted on a high-speed piezo solution switcher (Automate Scientific, Berkeley, CA, USA).” for “CsOH.”

GluA1/2 = target: T2, GluA1/2 (Homo sapiens, UniProt P42261+P42262); test: Whole-cell patch-clamp recordings of heteromeric GluA1/2 AMPAR in transfected HEK293T cells; settings: for Amplitude (glutamate plus TC compound): 10 mM glutamate + TC compound (12 µM optimal concentration), HEK293T, -60 mV, pH 7.4, 22 °C, mean ± SEM; for Amplitude (glutamate plus TC compound) / Amplitude, applying glutamate alone after TC compound: n = 10; for Amplitude, applying glutamate alone after TC compound: 10 mM glutamate alone after 20 s wash following the TC compound; for A/AI: ratio of current with glutamate alone (A) to inhibited current after TC compound (AI); for t deact: weighted tau of deactivation, 10 mM glutamate for 1 ms, glutamate alone 2.5±0.3; for t deact / t des: with TC compound; for t des: weighted tau of desensitization, 10 mM glutamate 500 ms, glutamate alone 5.2±0.5
T2 construct: expressed in transfected cells; host or cells: HEK293T
T2 sequence (P42261 19-906 isoform P42261-2 limits assumed): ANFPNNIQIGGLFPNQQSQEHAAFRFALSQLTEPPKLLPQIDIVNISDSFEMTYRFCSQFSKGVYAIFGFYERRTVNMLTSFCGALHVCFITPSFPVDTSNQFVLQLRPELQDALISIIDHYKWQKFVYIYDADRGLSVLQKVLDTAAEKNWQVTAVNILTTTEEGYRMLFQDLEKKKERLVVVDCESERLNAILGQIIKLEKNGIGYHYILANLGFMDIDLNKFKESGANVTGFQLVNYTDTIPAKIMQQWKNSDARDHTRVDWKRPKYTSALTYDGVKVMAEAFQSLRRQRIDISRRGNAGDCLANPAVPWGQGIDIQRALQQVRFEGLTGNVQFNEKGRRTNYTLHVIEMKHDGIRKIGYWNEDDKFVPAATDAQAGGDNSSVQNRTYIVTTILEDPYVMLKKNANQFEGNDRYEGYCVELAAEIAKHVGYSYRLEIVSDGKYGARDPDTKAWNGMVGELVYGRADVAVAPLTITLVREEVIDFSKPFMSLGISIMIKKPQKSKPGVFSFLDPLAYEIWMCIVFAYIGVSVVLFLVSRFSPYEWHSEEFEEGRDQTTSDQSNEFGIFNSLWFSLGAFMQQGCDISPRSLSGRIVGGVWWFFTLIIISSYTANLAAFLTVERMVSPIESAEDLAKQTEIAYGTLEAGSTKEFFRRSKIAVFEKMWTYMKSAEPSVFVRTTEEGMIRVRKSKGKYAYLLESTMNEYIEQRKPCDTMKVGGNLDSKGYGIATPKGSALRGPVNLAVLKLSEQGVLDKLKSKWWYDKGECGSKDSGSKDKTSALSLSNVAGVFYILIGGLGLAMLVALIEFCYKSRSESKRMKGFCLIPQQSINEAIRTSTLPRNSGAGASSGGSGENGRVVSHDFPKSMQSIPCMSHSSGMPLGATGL
T2 sequence (P42262 25-883 isoform P42262-2 limits assumed): as the sequence (P42262 25-883 isoform P42262-2 limits assumed, species assumed) above
Method: as §1, §2, §3, §4, §5

GluA1 = target: T3, GluA1 (Homo sapiens, UniProt P42261); test: Whole-cell patch-clamp recordings of homomeric GluA1 AMPAR in transfected HEK293T cells; settings: GluA1; for Amplitude (glutamate plus TC compound): 10 mM glutamate + TC compound (12 µM optimal concentration), HEK293T, -60 mV, pH 7.4, 22 °C, mean ± SEM; for t deact: weighted tau of deactivation, 10 mM glutamate for 1 ms, glutamate alone 2.1±0.1; for t deact / t des: with TC compound; for t des: weighted tau of desensitization, 10 mM glutamate 500 ms, glutamate alone 2.5±0.1
T3 construct: expressed in transfected cells; host or cells: HEK293T
T3 sequence (P42261 19-906 isoform P42261-2 limits assumed, species assumed): as the sequence (P42261 19-906 isoform P42261-2 limits assumed) above
Method: as §1, §2, §3, §4, §5

GluA2/3 = target: T4, GluA2/3 (Homo sapiens, UniProt P42262+P42263); test: Whole-cell patch-clamp recordings of heteromeric GluA2/3 AMPAR in transfected HEK293T cells; settings: for Amplitude (glutamate plus TC compound): 10 mM glutamate + TC compound (12 µM optimal concentration), HEK293T, -60 mV, pH 7.4, 22 °C, mean ± SEM; for Amplitude (glutamate plus TC compound) / Amplitude, applying glutamate alone after TC compound: n = 10; for Amplitude, applying glutamate alone after TC compound: 10 mM glutamate alone after 20 s wash following the TC compound; for A/AI: ratio of current with glutamate alone (A) to inhibited current after TC compound (AI); for t deact: weighted tau of deactivation, 10 mM glutamate for 1 ms, glutamate alone 2.6±0.3; for t deact / t des: with TC compound; for t des: weighted tau of desensitization, 10 mM glutamate 500 ms, glutamate alone 2.7±0.2
T4 construct: expressed in transfected cells; host or cells: HEK293T
T4 sequence (P42262 25-883 isoform P42262-2 limits assumed): as the sequence (P42262 25-883 isoform P42262-2 limits assumed, species assumed) above
T4 sequence (P42263 29-894 isoform P42263-2 limits assumed): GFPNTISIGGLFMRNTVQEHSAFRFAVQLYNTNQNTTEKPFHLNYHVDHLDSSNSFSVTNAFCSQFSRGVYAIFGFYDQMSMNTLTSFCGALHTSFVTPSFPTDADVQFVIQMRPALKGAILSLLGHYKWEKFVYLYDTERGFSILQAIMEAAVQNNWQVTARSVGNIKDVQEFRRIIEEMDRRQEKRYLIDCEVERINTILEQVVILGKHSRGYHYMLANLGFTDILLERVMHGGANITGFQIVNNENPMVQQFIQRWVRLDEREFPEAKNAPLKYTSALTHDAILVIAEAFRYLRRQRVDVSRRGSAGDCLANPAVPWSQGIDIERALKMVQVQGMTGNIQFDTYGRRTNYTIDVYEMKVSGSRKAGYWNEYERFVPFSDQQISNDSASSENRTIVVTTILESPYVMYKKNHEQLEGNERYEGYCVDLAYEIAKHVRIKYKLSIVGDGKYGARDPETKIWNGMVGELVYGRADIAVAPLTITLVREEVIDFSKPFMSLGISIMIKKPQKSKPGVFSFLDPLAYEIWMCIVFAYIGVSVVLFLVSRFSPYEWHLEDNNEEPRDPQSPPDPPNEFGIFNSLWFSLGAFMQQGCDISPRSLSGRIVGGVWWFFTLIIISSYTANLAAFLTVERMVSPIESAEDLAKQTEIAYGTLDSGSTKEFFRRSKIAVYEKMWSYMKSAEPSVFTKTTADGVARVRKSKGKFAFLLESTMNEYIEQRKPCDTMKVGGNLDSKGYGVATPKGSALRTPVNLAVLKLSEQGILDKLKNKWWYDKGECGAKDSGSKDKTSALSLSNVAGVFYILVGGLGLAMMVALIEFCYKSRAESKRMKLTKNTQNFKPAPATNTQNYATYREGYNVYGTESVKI
Method: as §1, §2, §3, §4, §5

[2] = Table S6, read-out: Log IC50 (converted)
[3] = ratio of current with glutamate alone (A) to inhibited current after TC compound (AI)
[4] = Table S6, peak current amplitudes, 8-10 cells, GraphPad Prism fit, read-out: IC50

| Amplitude (glutamate plus TC compound) (GluA2) | Amplitude, applying glutamate alone after TC compound (GluA2) | IC50 (GluA2; [2]) | IC50 (GluA2; read-out: IC50) | t deact (GluA2) | Amplitude (glutamate plus TC compound) (GluA1/2) | Amplitude, applying glutamate alone after TC compound (GluA1/2) | IC50 (GluA1/2; [2]) | A/AI (GluA1/2) | t deact (GluA1/2) | Amplitude (glutamate plus TC compound) (GluA1; n = 10) | IC50 (GluA1; [2]) | t deact (GluA1) | Amplitude (glutamate plus TC compound) (GluA2/3) | SMILES | t des (GluA2) | reduction in τw des [1] | increase in τw deact [1] | decrease in AMPAR subunit activity (inhibition of the whole-cell current) [1] | t des (GluA1/2) | t des (GluA1) | further results |
| --- | --- | --- | --- | --- | --- | --- | --- | --- | --- | --- | --- | --- | --- | --- | --- | --- | --- | --- | --- | --- | --- |
| 212±20 pA | 1131±105 pA | 3.02 µM | 3.02 µM | 6.3 ± 0.2 ms | 115±12 pA | 597±66 pA | 3.09 µM | 5.38±0.08 | 6.0 ± 0.5 ms | 172±18 pA | 3.24 µM | 5.6 ± 0.3 ms | 94±14 pA | COc1ccc(-c2nc(C(=O)Nc3cc(OC)c(OC)c(OC)c3)cs2)cc1 [TC-2] | 0.9 ± 0.1 ms | 2 to 3 fold | ~2.5 fold | ~5.5 fold | 3.7 ± 0.3 ms | 1.1 ± 0.1 ms | A/AI (GluA2; [3]): 5.49±0.05; IC50 (GluA1/2; read-out: IC50): 3.1 µM; Amplitude, applying glutamate alone after TC compound (GluA1; 10 mM glutamate alone after 20 s wash following the TC compound, n = 10): 841±88 pA; IC50 (GluA1; read-out: IC50): 3.2 µM; Amplitude, applying glutamate alone after TC compound (GluA2/3): 484±68 pA; IC50 (GluA2/3; [2]): 3.02 µM; A/AI (GluA2/3): 5.33±0.23; IC50 (GluA2/3; read-out: IC50): 3.04 µM; t deact (GluA2/3): 5.9 ± 0.4 ms; t des (GluA2/3): 1.0 ± 0.2 ms |
| 250±35 pA | 1071±134 pA | 3.31 µM | 3.35 µM | 5.8 ± 0.3 ms | 123±20 pA | 553±89 pA | 3.47 µM | 4.80±0.07 | 5.6 ± 0.4 ms | 177±33 pA | 3.55 µM | 5.5 ± 0.4 ms | 99±22 pA | COc1ccc(-c2nc(C(=O)Nc3cc(OC)ccc3OC)cs2)cc1 [TC-5] | 1.2 ± 0.1 ms | roughly twofold | around 2 fold | approximately 5 fold | 3.8 ± 0.3 ms | 1.4 ± 0.1 ms | IC50 (GluA1/2; [4]): 3.49 µM; IC50 (GluA1; [4]): 3.51 µM; A/AI (GluA1; [3]): 4.67±0.10; Amplitude, applying glutamate alone after TC compound (GluA2/3): 443±96 pA; IC50 (GluA2/3; [4]): 3.42 µM; IC50 (GluA2/3; [2]): 3.39 µM; A/AI (GluA2/3): 4.79±0.20; t deact (GluA2/3): 5.7 ± 0.4 ms; t des (GluA2/3): 1.3 ± 0.2 ms |
